In one data set the test system is tumor cells. Conditions: preclinical models of melanoma; cited from earlier work.
In the next data set the test system is 1205Lu cells. Kind of data set: LC3 immunoblotting of lysates from cells treated with rapamycin or hydroxychloroquine. Format: cell-based, human. The settings on record: 1205Lu cells compared to WM793 cells. On the procedure:
Melanoma cell lines […] and 1205Lu (as well as other cell lines identified in the appropriate figures) were maintained in RPMI 1640 (Invitrogen) supplemented with 10% fetal bovine serum (Sigma), 50 μg/mL gentamicin, and 25 mmol/L HEPES in the presence of 5% CO2 at 37° C. The 3D spheroid cultures were prepared as previously described^1 and cell death was evaluated using the Live/Dead Assay (Invitrogen). Electron microscopy was performed as previously described^1. Immunoblotting was performed on whole cell lysates as previously described. A commercially available polyclonal antibody against actin (I-19) was used (Santa Cruz). A polyclonal antibody against LC3 that was produced by QCB Biologicals was used. Band densities from Western Blots were quantified using Adobe Photoshop CS4 Extended.
The genetically paired melanoma cell lines, WM793 and 1205Lu, were used for initial secretome comparisons due to the inherent genetic heterogeneity across unrelated melanoma cell lines. The 1205Lu cell line is a subclone derived from the lung metastasis of WM793 in athymic mice, thus minimizing protein expression changes caused by genetic differences^14. To determine autophagic capacity in these paired cell lines, electron microscopy of WM793 and 1205Lu grown in complete medium was used to quantify AVs (FIG. 1A). […]

Molecules are shown by their SMILES.

Take `CCN(CCO)CCCC(C)Nc1ccnc2cc(Cl)ccc12` (centres unmarked) [hydroxychloroquine]: the “effect on cytotoxic effects of alkylating agents” value in the data set on tumor cells is on record as “augment the cytotoxic effects of alkylating agents”. Further, in the data set with 1205Lu cells, the LC3II/LC3I ratio result is on record as “increases”.

(Values after patent US20150233930A1, “METHODS AND COMPOSITIONS EMPLOYING SECRETED PROTEINS THAT REFLECT AUTOPHAGY DYNAMICS WITHIN TUMOR CELLS” (The Wistar Institute of Anatomy and Biology, priority 2014, published 2015).)
